From US20240002470A1, “Method for separation and/or detection and/or in vitro quantification of infectious compounds in biological material” (priority 2020, published 2024)

B1: β2GPI: plasma glycoprotein called β2-glycoprotein I, grafted on beads as the reference (protein, UniProt P02749 20-345, looked up)
Beta-2-glycoprotein 1: GRTCPKPDDLPFSTVVPLKTFYEPGEEITYSCKPGYVSRGGMRKFICPLTGLWPINTLKCTPRVCPFAGILENGAVRYTTFEYPNTISFSCNTGFYLNGADSAKCTEEGKWSPELPVCAPIICPPPSIPTFATLRVYKPSAGNNSLYRDTAVFECLPQHAMFGNDTITCTTHGNWTKLPECREVKCPFPSRPDNGFVNYPAKPTLYYKDKATFGCHDGYSLDGPEEIECTKLGNWSAMPSCKASCKVPVKKATVVYQGERVKIQEKFKNGMLHGDKVSFFCKNKEKKCSYTEDAQCIDGTIEVPKCFKEHSSLAFWKTDASDVKPC
modifications: grafted on beads

Tests used:
[1] = tested on: BVDV virus (Bovine viral Diarrhea Virus); test: Capture of BVDV virus on magnetic microbeads coated with pepβ2GPI; type: binding
Procedure: (§1) The pepβ2GPI were grafted onto the microbeads according to the supplier's recommendations. In summary, the microbeads are suspended in phosphate buffer at a pH of 6.0. The beads are then activated, for 15 minutes, in the presence of 1-ethyl-3-(3-Dimethylaminopropyl) carbodiimide and N-hydroxysuccinimide. After washing with HCl, 2 mM, the beads are suspended in a phosphate buffer at a pH of 7.5, containing the pepβ2GPI. The concentration of pepβ2GPI in this coupling buffer is 20 mg/L; the microbeads are incubated in the buffer with gentle and constant shaking at a temperature of 25° C. for 3 hours. The microbeads are then centrifuged at 1,500 rpm and the supernatant is removed; the centrifugation pellet is suspended in the same buffer as that used for the coupling of pepβ2GPI, which forms the suspension of microbeads coated with pepβ2GPI which we want to test.
(§2) One hundred microliters of viral culture supernatant to be studied are placed in an Eppendorf tube with 900 microliters of Tris buffer at a pH of 7.5 and 10 microliters of microbeads. The tubes are shaken horizontally to mix the microbeads well, and each tube is incubated at 37° C. or at room temperature (RT=22° C.) for 30 minutes. In each tube, the microbeads are then separated from the liquid phase by means of a magnet, placed externally against the wall of the tube, and the viral RNA is extracted. The beads are brought into contact with a viral lysis buffer, included in an RNA extraction kit: QIAamp RNA viral kit, sold by QIAGEN and the viral RNA is isolated according to the seller's recommendations.
(§3) The viruses tested are the HSV virus (Herpes Simplex virus) and the BVDV virus (Bovine viral Diarrhea Virus).
(§4) The same protocol as that described in example 1 was carried out.

E. coli B6054 = test: Capture on magnetic microbeads coated with pepβ2GPI: H61 E. coli B6054; type: binding
Procedure: (§5) To test the interaction of microbeads coated with β2GPI and the peptides derived from them, with bacteria present in the blood, 1 ml of blood culture is taken from each sample and placed in a 15 ml tube. 20 μl of microbeads are added and each tube is incubated at 37° C. with horizontal shaking. The tubes are then placed in a magnetic field which retains the microbeads on the wall and the supernatant is removed. The microbeads are then washed twice with sterile PBS, of the same composition as previously indicated; the microbeads are then resuspended in 150 μl of BTS culture medium. Two methods for detecting bacteria captured by microbeads were used: culture on TS agar and PCR For the detection of the bacterial capture by culture, 50 μl of the suspension of microbeads thus obtained are taken and they are spread out in a Petri dish containing TS agar. Petri dishes are incubated in an oven at 37° C. for 24 hours. The bacteria that have grown on the agar were then counted.
(§6) The tested bacteria are: C3 E. coli ATCC 11105, C5 S. aureus ATCC 6538, H61 E. coli B6054, C1: E. coli ATCC 8739, H46: C. albicans 1 and H: 60 SCN
(§7) The same protocol and primers as those described in example 9 were carried out.

E. coli ATCC 11105 = test: Capture on magnetic microbeads coated with pepβ2GPI: C3 E. coli ATCC 11105; type: binding
Procedure: as §5, §6, §7

S. aureus ATCC 6538 = test: Capture on magnetic microbeads coated with pepβ2GPI: C5 S. aureus ATCC 6538; type: binding
Procedure: as §5, §6, §7

E. coli ATCC 8739 = test: Capture of E. coli ATCC 8739 on magnetic microbeads, culture and counting; type: binding, Escherichia coli; settings: E. coli ATCC 8739 colonies from captured beads
Procedure: (§8) One ml of the culture of bacteria to be studied is placed in a hemolysis tube. 100 μl of buffer are added, the trade name of which is TTGB, then 20 μl of microbeads. The tube is stirred horizontally, to mix the microbeads well, and incubated at 37° C. or at room temperature (TA=22° C.) for half an hour. At the end of the incubation, the microbeads are separated from the liquid phase by means of a magnet, placed externally against the wall of the tube. The microbeads are then washed twice with LB medium and then resuspended in 1 ml of BTS culture medium (Tripticase-Soy broth) having the following formulation: […]
(§9) This culture medium is brought to a boil and then autoclaved, to make it sterile, before use. 20 μl of the microbead suspension are taken and spread in a Petri dish containing TS agar (Trypticase-Soya agar) having the following formulation: […]
(§10) The Petri dishes are incubated at +37° C. for 24 hours. The bacteria that have grown on the agar are then counted.
The used bacteria were obtained from a collection strain of Escherichia coli (E. coli), ATCC 8739. The same experiment as that described in the previous example was carried out.

[2] = tested on: HSV virus (Herpes Simplex virus); test: Capture of HSV virus on magnetic microbeads coated with pepβ2GPI; type: binding
Procedure: as §1, §2, §3, §4

S. aureus, SA 378804 = test: Capture of S. aureus SA 378804 on magnetic microbeads, culture and counting; type: binding, Staphylococcus aureus; settings: S. aureus SA 378804 colonies from captured beads
Procedure: as §8, §9, §10
The used bacterium is a strain of Staphylococcus aureus (S. aureus), SA 378804, isolated from the wound of the foot of a diabetic person, Sotto et al., Diabetes Care (2008) 31 (12), p. 2318-24. The same experiment as that described in the previous example was carried out.

Molecule | Capture of BVDV virus [1] [%] | Capture of H61 E. coli B6054 (E. coli B6054) [%] | Capture of C3 E. coli ATCC 11105 (E. coli ATCC 11105) [%] | Capture of C5 S. aureus ATCC 6538 (S. aureus ATCC 6538) [%] | % compared to β2GPI (E. coli ATCC 8739) [%] | Capture of HSV virus [2] [%] | % compared to β2GPI (S. aureus, SA 378804) [%]
H-((SSLAFWK)2-K)2-K—NH2 [Peptide P11] | 266 | 90 | 43 | 63 | 99 | 123 | 
B1 |  |  |  |  | 100 |  | 100
